Laboratory results: article PMC13327620, “A Deep‐Red‐Absorbing Osmium(II) Complex as a Photosensitizer for Photodynamic Therapy Inducing Immunogenic Cell Death” (Angewandte Chemie (International Ed. in English), 2026)
Read-outs that look alike come from different tables or passages of the source.

Experiments:
MCA205 cells [1] = experiment: In vivo vaccination and rechallenge, MCA205 model; parameters: species or system C57BL/6 mice; conditions: vaccination with MCA205 cells pre-treated with 500 µM Cisplatin or 1400 µM Oxaliplatin (dark), 5.5 µM Ce6 or 3 µM Os2 (740 nm)
Excerpt: Next, we used these concentrations in the MCA205 vaccination and rechallenge model on C57BL/6 mice to test the in vivo ICD effect of Os2, following the same experimental procedure as that used for CT26‐luc cells in Figure 5A. […] Body weights remained stable across all groups throughout the study, further supporting the good in vivo biosafety of Os2.
The BALB/c female mice were randomly divided into 4 groups with each group containing 5 mice, which were named as Control group, Cisplatin group, Ce6 group and Os2 group. CT26-luc cells wer e treat ed in vitro with 600 µM Cisplatin in the dark, 6.5 µM Ce6 or 1.8 µM Os2 upon 740 nm LED light irradiation (60 min, 12.6 J cm-2) following the methods described above. Subsequently, treated CT26-luc cells (3×10^5 cells in 100 µ L sterile PBS) or 100 µ L sterile PB S were injected subcutaneously into the left flank of each mouse. One week later, mice were r echalleng ed by injection with untreated CT26- luc cells (1×10^6 cells in 100 µL sterile PBS). The mice were monitored by an in vivo imaging system (Biospace Lab, Photon Imager Optima) and the tumor volume was calculated with the following equation: tumor volume = width 2 × length × […]
In vivo vaccination study on MCA205 cells
The C57BL/6 mice were randomly divided into 5 groups with each group containing 10 mice, whi ch w ere nam ed as Control group, Cisplatin group, Oxaliplatin group, Ce6 group and Os2 group. M CA205 cells were treated in vitro with 500 µM Cisplatin o r 1400 µM Oxaliplatin in the dark, 5.5 µM Ce6 or 3 µM Os2 upon 740 nm LED light irradiation (60 min, 12.6 J cm-2) following the methods described above. Subsequently, treated MCA205 cells (3 ×10^5 cells in 100 µ L sterile PBS) or 100 µ L sterile PBS were injected subcutaneously into the left flank of each mouse. One week later, mice were rechallenged by injection with untreated MCA205 cells (1×10^6 cells in 100 µ L sterile PBS). The tumor volume was calculated with the following equation: tumor volume =

MCA205 cells [2] = experiment: Annexin V-FITC/propidium iodide (AV/PI) cell viability assay by flow cytometry; type: cell-based, mouse; conditions: MCA205, in the dark
Excerpt: Regarding the optimal dose of each drug for in vivo vaccination, we continued to follow the same standards as with CT26‐luc cells, using the concentration of each drug that results in approximately 5% of live cells as the in vivo dose. The testing method remained the same, using the AV/PI dual staining assay. Negative controls still included the untreated group (direct injection of PBS solution) and the non‐ICD inducer Cisplatin. Based on the in vitro HMGB‐1 release results, Ce6 was maintained as the positive control. For a more comprehensive comparison, we also added the platinum‐based chemotherapeutic agent Oxaliplatin as a non‐PS ICD inducer, serving as an additional positive control.
As the drug concentration increased, the cells gradually shifted to dying (Q3, Annexin V^+/PI^−) or dead (Q2, Annexin V^+/PI^+ and Q1, Annexin V^−/PI^+) state. For MCA205 cells, the concentrations corresponding to approximately 5% cell survival for each drug were 500 µM Cisplatin and 1400 µM Oxaliplatin in the dark, 5.5 µM Ce6 and 3 µM Os2 under 740 nm LED light illumination. […]
(§1) incubated for 24 h. Cells were then treat ed with the determined IC50 of complexes and irradiated or kept in the dark. Supernatants were collected 12 h post-t reatm ent, and the extracellular ATP content was measured with Adenosine 5′ -triphosphate (ATP) Bioluminescent Assay Kit (Sigma-Aldrich) according tomanufacturer ’s ins truction.
Cell viability assay f o r in vivo by flow cytometry
CT26-luc or MCA205 cells were seeded in 6-well plates at a density of 1 ×1 05 cells per well and cultured for 24 h at 37 °C with 5% CO 2. The medium was replaced by various concentrations of the compound dilutions in fresh medium.For Ce6 and Os2, after 4 h incubation in the dark, the medium w as r efr eshed and the plates wer e illuminated with a LUMOS-BIO photoreactor (Atlas Photonics), followed by an additional 20- h incubation in the dark. […]
(§2) 556419) and PI (BD Biosciences, Catalog no.51- 66211E). CT26- luc cells were analyzed by flow cytometry (Beckm an Coulter Life Sciences, CytoFLEX LX Flow Cytometer). […]

CT26‐luc cells = experiment: as above; type: cell-based, mouse; conditions: in the dark, 24 h
Experimental: Following the gold standard assessment method, the Annexin V‐FITC/propidium iodide (AV/PI) dual staining assay was conducted to screen the suitable concentrations of each drug (Figure S25). In addition, to better monitor tumor growth in vivo, luciferase‐labelled tumor cells (CT26‐luc) were used for in vivo experiments by bioluminescence imaging. […] As the concentration of each drug was increased, the proportion of live cells decreased, while the percentage of dying cells (Q3, Annexin V^+/PI^−) and dead cells (Q2, Annexin V^+/PI^+ and Q1, Annexin V^−/PI^+) increased. The concentrations at which approximately 5% of the cells remained alive (IC95) were 600 µM for Cisplatin in the dark, 1.8 µM for Os2, and 6.5 µM for Ce6 upon 740 nm LED light irradiation (60 min, 12.6 J cm^−2). These concentrations were selected for the subsequent in vivo vaccination studies. […]
as §1, with “truction. […]” for “truction.”
as §2

[3] = tested on: mouse fibrosarcoma (MCA205) cells; experiment: Resazurin cell viability assay, phototoxicity; type: cell-based; conditions: MCA-205, light or radiation study, 1 h, MCA205, 740 nm, 60 min, 12.60 J/cm2
Experimental: (100 U ml−1), streptomycin (100 U ml−1), and 1% L-glutamine. The murine fibrosarcom a (MCA205) cells were cultured in RPMI 1640 medium with 10% fetal bovine serum (FBS), penicillin (100 U ml−1), streptomycin (100 U ml−1), and 1% L-glutamine. All cells were incubated at 37 °C in a humidified atmosphere with 5 % CO2.
(§3) Normoxia. The in vitro viability of cells exposed to the complexes was determined using a resazurin assay. C ells were seeded in 96-well plates at densities of 4,000 cells/well for CT26, MC A205 and U-87 MG cells, and 8,000 cells/well for MRC-5 and NIH/3T3 cells. A fter 24 h of growth at 37 °C wit h 5% CO2, the medium was replaced with fresh medium containing various concentrations of the compounds . Following a 4- h incubation in the dark, the medium was refres hed , and the plates were exposed to irradiation usinga LUM OS -BIO photoreactor (At las Photonics).N on- ir rad iated plates were similarly refr eshed with medium and kept in the dark for the same duration. After a 40- h r ecov ery period, a f reshly pr epar ed resazurin solution (0.2 mg/mL) was added to each well, and the plates were left in the dark for 4 h before analysis on a B i o Te k Cytation 5 Cell Imaging Multimode Reader (Agil ent Technologies). […]

[4] = Photophysical properties (fluorescence and singlet oxygen quantum yield, lifetime); type: physicochemical; conditions: in ethanol
Experimental: System Inc, Phoenixville, PA, USA). The excitation beam is separated by a SPEX dual […]
network monochromator (1200 lines / mm blazed at 330 nm). The fluorescence was […]
measured by the UV-Visible detector via the SPEX dual network emission […]
monochromator (1200 lines / mm blazed at 500 nm). Singlet oxygen production was […]
measured with an infrared detector InGaAs (800 - 1550 nm) via the dual network […]
emission monochromator SPEX (600 lines / mm blazed at 1 µm).
All spectra were measured using 4-sided quartz cells. The absorption values of the […]
references and samples at the excitation wavelength were adjusted to 0.2. All emission […]
spectra were normalized to the same absorbance for the purpose of comparison.
[Ru(bpy)3]2+ in acetonitrile was chosen as standard for both fluorescence and singlet […]
oxygen quantum yield determination. Fluorescence quantum yield of [ Ru(bpy)3]2+ i n […]
acetonitrile is evaluated at 0.077.[5] Singlet oxygen quantum yield of [ Ru(bpy)3]2+ i n […]
acetonitrile is evaluat ed at 0.77.[6]
Time-resolved experiments were performed using for excitation: a pulsed laser diode […]
emitting at 407 nm (LDH-P-C-400M, FWHM < 70 ps, 1 MHz) coupled with a driver […]
PDL 800- D (both PicoQuant GmbH, BERLIN, Germany) and for detection: an […]
avalanch e photodiode SPCM-AQR-15 (EG & G, VAUDREUIL, Can ada) coupled with […]
a 650 nm long- wav e p ass filter as det ection system. The acquisition was p erformed by […]
a PicoHarp 300 module with a 4 channels router PHR-800 (both PicoQuant GmbH, […]
BERLIN, Germany ). Th e fluores cence decays were recorded using the single photon […]
counting method. Data were collected up to 1000 counts accumulated in the maximum […]
channel and analyzed using Time Correlated Single Photon Counting (TCSPC) […]
software Fluofit (PicoQuant GmbH, BERLIN, Germany) based on iterative reconvolution using a Levensberg- M arquandt alg oritm, enabling the obtention of multi-exponential profiles (m ainly one or two exponenti als in our cases ). […]

[5] = tested on: mouse colon adenocarcinoma (CT26) cells; experiment: Resazurin cell viability assay, (photo)cytotoxicity, normoxia; type: cell-based; conditions: for IC50: Mus musculus, normoxia
Experimental: Given that most ICD studies focus on breast, non‐small cell lung carcinoma, and colon cancer, and since ICD was first discovered in mouse colon cancer cells (CT26), we initially tested our compounds on CT26 cells. Cells were incubated with nine different concentrations (mainly from 0.01 to 100 µM) of the compounds for 4 h in the dark. Then, the diluted solutions containing the compounds were replaced by fresh medium, and the cells were either illuminated or kept in the dark for 1 h more. After 2 days, IC50 values (concentration of the agent inhibiting cell growth by 50%) were determined with the resazurin assay, using chlorin e6 (Ce6) and protoporphyrin IX (PpIX) for comparison (Figure S10). The clinically approved chlorin mixture Radachlorin contains ∼80% Ce6, while 5‐aminolevulinic acid (Ameluz and Levulan) and methyl 5‐aminolevulinate (Metvix and Metvixia) serve as precursors of PpIX. Therefore, Ce6 and PpIX were used for comparison purposes.
(100 U ml−1), streptomycin (100 U ml−1), and 1% L-glutamine. […]
All cells were incubated at 37 °C in a humidified atmosphere with 5 % CO2.
as §3

[6] = standard, in acetonitrile; cited from earlier work

## N.N.[Cl][Pt][Cl] [Cisplatin]
MCA205 cells [1]
  Tumor growth: Almost no inhibition
MCA205 cells [2]
  Concentration corresponding to approximately 5% cell survival: 500 µM
CT26‐luc cells
  Concentration at which approximately 5% of the cells remained alive (IC95): 600 µM

## Cc1cc(O)c2c(=O)c3c(O)cc(O)c4c5c(O)cc(O)c6c(=O)c7c(O)cc(C)c8c1c2c(c34)c(c78)c65 [Hypericin]
[3]
  IC50: 1.66 ± 0.18 µM

## O=C1[O][Pt]2([NH][C@@H]3CCCC[C@H]3[NH]2)[O]C1=O [Oxaliplatin]
MCA205 cells [1]
  Tumor growth: partial suppression
MCA205 cells [2]
  Concentration corresponding to approximately 5% cell survival: 1400 µM

## C=CC1=C(C)c2cc3[nH]c(cc4nc(cc5[nH]c(cc1n2)c(C)c5CCC(=O)O)C(CCC(=O)O)=C4C)c(C)c3C=C [PpIX, protoporphyrin IX]
[3]
  IC50: 4.41 ± 0.09 µM
[4]
  Fluorescence lifetime: 12.1 ns
  Fluorescence quantum yield: 0.05
  Singlet oxygen quantum yield: 0.77
[5]; CT26, 620 nm
  PI (phototoxicity index, IC50 dark/IC50 light): >110
[5]; CT26, CT26, dark, read-out: IC50 Dark
  IC50: > 100 µM
[5]; CT26, light or radiation study, 1 h, CT26, 620 nm, 1.88 mW/cm^2, 60 min, read-out: IC50 620 nm (1 h, 6.75 J/cm^2)
  IC50: 0.91 ± 0.1 µM

## [Ru+2].c1ccc(-c2ccccn2)nc1.c1ccc(-c2ccccn2)nc1.c1ccc(-c2ccccn2)nc1 [[Ru(bpy)3]2+]
[6]
  Fluorescence quantum yield: 0.077
  Singlet oxygen quantum yield: 0.77
